The source of these data is PubChem BioAssay (NCI).

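Following 48 hours of exposure in 96-well plates, responses at five concentrations were used to interpolate endpoints linearly. The concentration for 50% growth inhibition is given as GI50. At the TGI there is no net growth.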 A value given as a limit tells only on which side of the number the result lay.

One test relates to TK-10 renal. Briefly: NCI anticancer screen, dose series, 48 h.
Regarding `O=C(O)/C=C\C(=O)Nc1ccc(S(=O)(=O)c2ccc(NC(=O)/C=C\C(=O)O)cc2)cc1`, the TGI is above 100 µM.

As for `CN(C)CCCNC(=O)c1c(O)c2ccccc2n(C)c1=O`, the TGI is above 100 µM.

Regarding `COc1ccc(-n2nc(C)c3c(Nc4ccc(NC(=O)Nc5ccc(Cl)c(C(F)(F)F)c5)cc4)ncnc32)cc1`, the GI50 was 2.88 µM and the TGI worked out at 12.3 µM.

`C[C@]12CC[C@@H]3c4ccc(O)cc4CC[C@H]3[C@@H]1C/C(=C\c1ccc(C#N)cc1)C2=O` gave a TGI above 100 µM.

`CC1(C)CC(C#Cc2ccccc2)CC(C)(C)N1O`: the TGI worked out at 40.5 µM.

`Cc1cc(O)c(-c2cc(O)c(C)cc2O)cc1O`: the TGI came to 16 µM.

Compound `O=C(O)CN(CC(=O)O)C(C(=O)O)c1ccccc1` (configuration not stated) yielded a TGI above 100 µM.

Compound `CCNc1ncnc2sc(SCc3ccccc3)nc12` yielded a TGI above 100 µM.

In turn, `S=C1NC2=C(CSC/C2=C\c2ccccc2)C(c2ccccc2)N1` (configuration not stated) returned a TGI above 100 µM.

Turning to `O=C(OCC1OC(n2nc(Cn3nnc(-c4cccnc4)n3)n(-c3cccc4ccccc34)c2=S)C(OC(=O)c2ccccc2)C1OC(=O)c1ccccc1)c1ccccc1` (configuration not stated), the TGI was above 100 µM.

`COc1ccc(/C=N/n2c(C)nc3c(sc(=S)n3-c3ccccc3)c2=O)cc1` had a TGI above 100 µM.

In turn, `CCN1C(=O)C(=C/C=C/c2ccc(N(CC)CC)cc2)C(=O)N(CC)C1=S` returned a TGI above 100 µM.

`Nc1ccccc1C(=O)C(Br)C(Br)c1ccc2c(c1)OCO2` (configuration not stated) had a TGI of 72.7 µM.

Consider `CC(C)C1=C(O)C2=C(C(=O)C1=O)C1(C)CCCC(C)(C)C1C(O)C2OC=O` (configuration not stated), for which the TGI came out at 26.2 µM.

The compound `CCCCCCCCCCCC1CC(=O)NCCCN(C)CCCCN(C)CCCN1C` (configuration not stated) yielded a TGI of 3.12 µM.

Compound `CC(C)[Si](OC/C(=C/COC(C)(C)C)[C@H]1CC=C(C(=O)c2ccccc2N2CN(C)C(=O)N(C)C2)C1)(C(C)C)C(C)C` displayed a TGI of 24.2 µM.

The compound `COc1ccc2c(c1)c(=O)c1c(NCCNCCO)ccc3c(=O)n(CCN(C)C)c(=O)n2c31` came in with a TGI of 4.53 µM.

Compound `CC(C)N1CN(c2ccccc2)C2(CCN(CCCC(=O)c3ccc(F)cc3)CC2)C1=O` showed a TGI above 49.5 µM.

In the case of `CC(C)=CCC[C@@H](C)C1=C(O)C(N)=C(C)C(=O)C1=O`, the TGI is above 100 µM.

Take `CCOC(=O)C1=CC(C)(C(=O)OCC)Nc2c(nc(N)[nH]c2=O)N1` (configuration not stated): the TGI was above 10 µM.

Another test has as its system MCF7 breast. Briefly: NCI anticancer screen, dose series, 48 h.
Take `COc1ccc(Oc2cnn(C(Br)(Br)C(C)=O)c(=O)c2Br)cc1`: the TGI is 34.8 µM.

For `O=S1(=O)c2cnccc2NC(=NCc2ccccc2)N1c1ccccc1`, the TGI is above 100 µM.

Regarding `CN(C)CCCNC(=O)c1c(O)c2ccccc2n(C)c1=O`, the TGI was above 100 µM.

`COc1ccc(-n2nc(C)c3c(Nc4ccc(NC(=O)Nc5ccc(Cl)c(C(F)(F)F)c5)cc4)ncnc32)cc1`: the GI50 was 2.12 µM and the TGI worked out at 6.03 µM.

The compound `C[C@]12CC[C@@H]3c4ccc(O)cc4CC[C@H]3[C@@H]1C/C(=C\c1ccc(C#N)cc1)C2=O` returned a TGI above 100 µM.

On to `CC1(C)CC(C#Cc2ccccc2)CC(C)(C)N1O`, for which the TGI turned out to be 36.3 µM.

Turning to `Cc1cc(O)c(-c2cc(O)c(C)cc2O)cc1O`, the TGI turned out to be 47.6 µM.

Regarding `O=C(O)CN(CC(=O)O)C(C(=O)O)c1ccccc1` (configuration not stated), the TGI is above 100 µM.

For `CCNc1ncnc2sc(SCc3ccccc3)nc12`, the TGI was above 100 µM.

`S=C1NC2=C(CSC/C2=C\c2ccccc2)C(c2ccccc2)N1` (configuration not stated) came in with a TGI above 100 µM.

`O=C(OCC1OC(n2nc(Cn3nnc(-c4cccnc4)n3)n(-c3cccc4ccccc34)c2=S)C(OC(=O)c2ccccc2)C1OC(=O)c1ccccc1)c1ccccc1` (configuration not stated) had a TGI above 100 µM.

In turn, `CCN1C(=O)C(=C/C=C/c2ccc(N(CC)CC)cc2)C(=O)N(CC)C1=S` yielded a TGI above 100 µM.

In the case of `CSc1nc2c(ncn2C2OC(CO)C(O)C(O)C2O)c(=O)[nH]1` (configuration not stated), the TGI is above 100 µM.

Compound `CC(C)C1=C(O)C2=C(C(=O)C1=O)C1(C)CCCC(C)(C)C1C(O)C2OC=O` (configuration not stated) returned a TGI of 27.7 µM.

For `CC(C)[Si](OC/C(=C/COC(C)(C)C)[C@H]1CC=C(C(=O)c2ccccc2N2CN(C)C(=O)N(C)C2)C1)(C(C)C)C(C)C`, the TGI stood at 15.1 µM.

Regarding `COc1cc(C2c3cc4c(cc3[C@@H](Nc3ccc5c(c3)OCO5)C3COC(=O)[C@H]23)OCO4)cc(OC)c1O` (some centres not stated), the TGI worked out at 10.1 µM.

Compound `COc1ccc2c(c1)c(=O)c1c(NCCNCCO)ccc3c(=O)n(CCN(C)C)c(=O)n2c31` returned a TGI of 3.54 µM.

Compound `CC(C)N1CN(c2ccccc2)C2(CCN(CCCC(=O)c3ccc(F)cc3)CC2)C1=O` yielded a TGI of 13.1 µM.

Compound `CC(C)=CCC[C@@H](C)C1=C(O)C(N)=C(C)C(=O)C1=O` came in with a TGI above 100 µM.

Take `CCOC(=O)C1=CC(C)(C(=O)OCC)Nc2c(nc(N)[nH]c2=O)N1` (configuration not stated): the TGI was above 10 µM.

For a further test, the system named is SK-OV-3 ovarian. Briefly: NCI anticancer screen, dose series, 48 h.
As for `N#C/C(=C1\SC(N=Nc2ccc(Cl)cc2)C(=O)N1c1ccccc1)c1nc2ccccc2[nH]1` (configuration not stated), the TGI stood at 35.6 µM.

In turn, `O=C(NN1C(=O)CSC1c1cccc(F)c1)c1ccncc1` (configuration not stated) gave a TGI above 100 µM.

The compound `c1ccc2[nH]c(CNc3ccc(C4C[Se]N=N4)cc3)nc2c1` (configuration not stated) yielded a TGI above 100 µM.

As for `COc1ccc(Oc2cnn(C(Br)(Br)C(C)=O)c(=O)c2Br)cc1`, the TGI was above 64.3 µM.

Take `O=S1(=O)c2cnccc2NC(=NCc2ccccc2)N1c1ccccc1`: the TGI is above 100 µM.

As to `O=C(O)/C=C\C(=O)Nc1ccc(S(=O)(=O)c2ccc(NC(=O)/C=C\C(=O)O)cc2)cc1`, the TGI was above 100 µM.

In turn, `CN(C)CCCNC(=O)c1c(O)c2ccccc2n(C)c1=O` registered a TGI above 100 µM.

With `COc1ccc(-n2nc(C)c3c(Nc4ccc(NC(=O)Nc5ccc(Cl)c(C(F)(F)F)c5)cc4)ncnc32)cc1`, the GI50 is 2.42 µM and the TGI is 6.27 µM.

For the compound `C[C@]12CC[C@@H]3c4ccc(O)cc4CC[C@H]3[C@@H]1C/C(=C\c1ccc(C#N)cc1)C2=O`, the TGI is above 100 µM.

Take `CC1(C)CC(C#Cc2ccccc2)CC(C)(C)N1O`: the TGI is above 100 µM.

As to `Cc1cc(O)c(-c2cc(O)c(C)cc2O)cc1O`, the TGI turned out to be 30.5 µM.

Consider `O=C(O)CN(CC(=O)O)C(C(=O)O)c1ccccc1` (configuration not stated), for which the TGI is above 100 µM.

`CCNc1ncnc2sc(SCc3ccccc3)nc12` showed a TGI above 100 µM.

Regarding `S=C1NC2=C(CSC/C2=C\c2ccccc2)C(c2ccccc2)N1` (configuration not stated), the TGI was above 100 µM.

As for `O=C(OCC1OC(n2nc(Cn3nnc(-c4cccnc4)n3)n(-c3cccc4ccccc34)c2=S)C(OC(=O)c2ccccc2)C1OC(=O)c1ccccc1)c1ccccc1` (configuration not stated), the TGI is above 100 µM.

Consider `COc1ccc(/C=N/n2c(C)nc3c(sc(=S)n3-c3ccccc3)c2=O)cc1`, for which the TGI is above 100 µM.

For the compound `CCN1C(=O)C(=C/C=C/c2ccc(N(CC)CC)cc2)C(=O)N(CC)C1=S`, the TGI is above 100 µM.

As to `CSc1nc2c(ncn2C2OC(CO)C(O)C(O)C2O)c(=O)[nH]1` (configuration not stated), the TGI is above 100 µM.

With `Nc1ccccc1C(=O)C(Br)C(Br)c1ccc2c(c1)OCO2` (configuration not stated), the TGI turned out to be 84.4 µM.
